Where two headings read alike, the source gives them in different places.
Legend:
tubulin = assay: In vitro tubulin polymerisation assay; format: biochemical; conditions: 3 μM
Experimental: To investigate the effect of compounds 4k and 5a on microtubule system, their tubulin polymerisation inhibition activities were evaluated using in vitro tubulin polymerisation assay.
The BK001 kit used in this test was purchased from Cytoskeleton Inc. (Denver, CO, USA). […] Then the mixtures were transferred to 37 °C and tubulin assembly was monitored (excitation wavelength: 360 nm; emission wavelength: 420 nm) at 1 min intervals for 90 min by a microplate reader.

MCF-7 cells = assay: MTT antiproliferative assay, MCF-7; format: cell-based; conditions: Homo sapiens, read-out: IC50 (μM) ± SD MCF-7
Experimental: (§1) The in vitro antiproliferative activities of all target compounds 4a−k, 5a−h, and 6a−h were assayed by MTT method using human gastric cancer cell line SGC-7901 and human breast cancer cell line MCF-7.
(§2) All cell lines tested in this study were purchased from the American Type Culture Collection (ATCC, Manassas, VA). SGC-7901 (human gastric adenocarcinoma), HCT-116 (human colon carcinoma), and A549 (human pulmonary carcinoma) cells were cultured in RPMI-1640 medium containing 10% foetal serum (FBS) and 1% penicillin-streptomycin solution (100×). MCF-7 (human breast carcinoma) cells were cultured in DMEM medium containing 10% foetal serum (FBS) and 1% penicillin-streptomycin solution (100×). PC-3 (human prostate carcinoma) cells were cultured in Ham’s F-12K medium containing 10% foetal serum (FBS) and 1% penicillin-streptomycin solution (100×). All cells were cultured at 37 °C in a humidified atmosphere containing 5% CO2.
(§3) Cells grown in logarithmic phase were harvested and seeded onto 96-well cell plates at a density of 4 ∼ 5 × 10^3 cells per well (various from cell type) and were cultured for 24 h. Different concentrations of compounds were added into the wells, and the cells were cultured for another 72 h. The medium was removed, then 20 μL of MTT (5 mg/mL in PBS) was added to each well and the cells were incubated for 4 h. 150 μL of DMSO was added to each well to dissolve the formazan, and the absorbance at 490 nm of each well was measured by a microplate reader. IC50 values were calculated by SPSS software.

SGC-7901 cells = assay: MTT antiproliferative assay, SGC-7901; format: cell-based; conditions: Homo sapiens, read-out: IC50 (μM) ± SD SGC-7901
Experimental: as §1, §2, §3

[1] = tested on: microtubule network in PC-3 cells; assay: Immunofluorescence assay of microtubule network; format: cell-based, human; conditions: 20 nM, 24 h
Experimental: To evaluate the effects of 4k and 5a on intracellular microtubule, immunofluorescence assay was carried out to observe the changes of microtubule network in cell.
PC-3 cells in logarithmic phase were harvested and seeded onto 12-well cell plates with round coverslip on the bottom of each well at a density of 3 × 10^4 cells per well, and were cultured for 24 h. […] The medium was removed, and cells were washed with PBS twice, fixed with 4% formaldehyde in PBS for 30 min, then the solution was removed. Cells were washed with PBS twice, permeabilized with 0.2% (v/v) Triton X-100 in PBS for 30 min, then the solution was removed. Cells were washed with PBS twice, blocking the cells in 5% bovine serum albumin (BSA) for 30 min. Then BSA was removed, and cells were incubated with the primary α-tubulin antibody (Santa Cruz, CA) containing 2% BSA (v/v, 1: 100) overnight at 4 °C.
The following steps were operated in dark environment. The antibody was removed, then cells were washed with PBST twice and were added FITC-conjugated anti-mouse secondary antibody diluted (1:100) with 2% BSA in PBS and incubated at room temperature for 4 h. The cells were then washed with PBST twice, stained with 4′,6-diamidino-2-phenylindole (DAPI) for 30 min at room temperature, and washed with PBS twice. The round coverslips at the bottom of wells were taken out, and the images were photographed by a confocal microscope.

[2] = MCF7, 72 h drug exposure, MTT assay
[3] = SGC-7901, 72 h drug exposure, MTT assay

| IC50 (MCF-7 cells; [2]) [µM] | IC50 (SGC-7901 cells; [3]) [µM] | SMILES | other results |
| --- | --- | --- | --- |
| 1.57 ± 0.243 | 2.16 ± 0.098 | COc1ccc(-n2cc3c(n2)C(c2cc(OC)c(OC)c(OC)c2)=NNC(=S)N3)cc1 [6g, 2–(4-Methoxyphenyl)-8–(3,4,5-trimethoxyphenyl)-2,6-dihydropyrazolo[4,3-e][1,2,4]triazepine-5(4H)-thione] | – |
| 6.9 ± 0.815 | 5.12 ± 0.099 | COc1cc(C2=NNC(=S)Nc3cn(-c4cccc(F)c4)nc32)cc(OC)c1OC [6e, 2–(3-Fluorophenyl)-8–(3,4,5-trimethoxyphenyl)-2,6-dihydropyrazolo[4,3-e][1,2,4]triazepine-5(4H)-thione] | – |
| 8.42 ± 0.954 | 10 ± 0.078 | COc1cc(C2=NNC(=S)Nc3cn(-c4ccc(F)cc4)nc32)cc(OC)c1OC [6f, 2–(4-Fluorophenyl)-8–(3,4,5-trimethoxyphenyl)-2,6-dihydropyrazolo[4,3-e][1,2,4]triazepine-5(4H)-thione] | – |
| 0.662 ± 0.07 | 0.485 ± 0.03 | COc1cc(C2=NNC(=S)Nc3cn(-c4ccc(Cl)cc4)nc32)cc(OC)c1OC [6h, 2–(4-Chlorophenyl)-8–(3,4,5-trimethoxyphenyl)-2,6-dihydropyrazolo[4,3-e][1,2,4]triazepine-5(4H)-thione] | – |
| 0.749 ± 0.181 | 0.366 ± 0.065 | COc1cc(C2=NNC(=S)Nc3cn(-c4cccc(C)c4)nc32)cc(OC)c1OC [6b, 2–(3-Methylphenyl)-8–(3,4,5-trimethoxyphenyl)-2,6-dihydropyrazolo[4,3-e][1,2,4]triazepine-5(4H)-thione] | – |
| 0.123 ± 0.02 | 0.151 ± 0.024 | COc1cc(C2=NNC(=S)Nc3cn(-c4ccc(C)cc4)nc32)cc(OC)c1OC [6c, 2–(4-Methylphenyl)-8–(3,4,5-trimethoxyphenyl)-2,6-dihydropyrazolo[4,3-e][1,2,4]triazepine-5(4H)-thione] | – |
| 0.398 ± 0.079 | 0.087 ± 0.008 | COc1cc(C2=NNC(=S)Nc3cn(-c4ccccc4F)nc32)cc(OC)c1OC [6d, 2–(2-Fluorophenyl)-8–(3,4,5-trimethoxyphenyl)-2,6-dihydropyrazolo[4,3-e][1,2,4]triazepine-5(4H)-thione] | – |
| 2.98 ± 0.462 | 2.74 ± 0.041 | COc1cc(C2=NNC(=S)Nc3cn(-c4ccccc4)nc32)cc(OC)c1OC [6a, 2-Phenyl-8–(3,4,5-trimethoxyphenyl)-2,6-dihydropyrazolo[4,3-e][1,2,4]triazepine-5(4H)-thione] | – |

The next lines start with the compound.

| SMILES | IC50 (MCF-7 cells; [2]) [µM] | IC50 (SGC-7901 cells; [3]) [µM] | other results |
| --- | --- | --- | --- |
| CC(=O)O[C@H]1C(=O)[C@@]2(C)[C@H]([C@H](OC(=O)c3ccccc3)[C@]3(O)C[C@H](OC(=O)[C@H](O)[C@@H](NC(=O)c4ccccc4)c4ccccc4)C(C)=C1C3(C)C)[C@]1(OC(C)=O)CO[C@@H]1C[C@@H]2O [paclitaxel, reference compound] | – | – | effect on tubulin polymerisation (fluorescence intensity) (tubulin): enhanced microtubule polymerisation |
| COc1ccc(-n2cc3c(n2)C(c2cc(OC)c(OC)c(OC)c2)=NCC(=O)N3)cc1 [5g, 2–(4-Methoxyphenyl)-8–(3,4,5-trimethoxyphenyl)-2,6-dihydropyrazolo[4,3-e][1,4]diazepin-5(4H)-one] | – | – | IC50 (MCF-7 cells; MCF7, 72 h): 2.86 ± 0.435 µM; IC50 (SGC-7901 cells; SGC-7901, 72 h): 0.841 ± 0.024 µM |
| COc1cc(C(=O)c2nn(-c3ccccc3C)cc2N)cc(OC)c1OC [4i, (4-Amino-1–(2-methylphenyl)-1H-pyrazol-3-yl)(3,4,5-trimethoxyphenyl)methanone] | 2.2 ± 0.196 | 0.166 ± 0.004 | – |
| COc1cc(C(=O)c2nn(-c3ccccc3)cc2N)cc(OC)c1OC [4a, (4-Amino-1-phenyl-1H-pyrazol-3-yl)(3,4,5-trimethoxyphenyl)methanone] | 0.034 ± 0.005 | 0.04 ± 0.003 | – |
| COc1cc(C(=O)c2nn(-c3ccc([N+](=O)[O-])cc3)cc2N)cc(OC)c1OC [4j, (4-Amino-1–(4-nitrophenyl)-1H-pyrazol-3-yl)(3,4,5-trimethoxyphenyl)methanone] | 0.391 ± 0.083 | 0.04 ± 0.006 | – |
| COc1cc(C(=O)c2nn(-c3ccccc3F)cc2N)cc(OC)c1OC [4d, (4-Amino-1–(2-fluorophenyl)-1H-pyrazol-3-yl)(3,4,5-trimethoxyphenyl)methanone] | 0.404 ± 0.036 | 0.086 ± 0.004 | – |
| COc1cc(C2=NCC(=O)Nc3cn(-c4cccc(C)c4)nc32)cc(OC)c1OC [5b, 2–(3-Methylphenyl)-8–(3,4,5-trimethoxyphenyl)-2,6-dihydropyrazolo[4,3-e][1,4]diazepin-5(4H)-one] | 0.665 ± 0.052 | 0.424 ± 0.076 | – |
| COc1cc(C(=O)c2nn(-c3cccc(C)c3)cc2N)cc(OC)c1OC [4b, (4-Amino-1–(3-methylphenyl)-1H-pyrazol-3-yl)(3,4,5-trimethoxyphenyl)methanone] | 0.224 ± 0.06 | 0.095 ± 0.011 | – |
| COc1ccc(-n2cc(N)c(C(=O)c3cc(OC)c(OC)c(OC)c3)n2)cc1 [4g, (4-Amino-1–(4-methoxyphenyl)-1H-pyrazol-3-yl)(3,4,5-trimethoxyphenyl)methanone] | 0.068 ± 0.012 | 0.022 ± 0.002 | – |
| COc1cc(C2=NCC(=O)Nc3cn(-c4ccccc4F)nc32)cc(OC)c1OC [5d, 2–(2-Fluorophenyl)-8–(3,4,5-trimethoxyphenyl)-2,6-dihydropyrazolo[4,3-e][1,4]diazepin-5(4H)-one] | 1.08 ± 0.381 | 0.053 ± 0.008 | – |
| COc1cc(C(=O)c2nn(-c3ccc(Cl)cc3)cc2N)cc(OC)c1OC [4h, (4-Amino-1–(4-chlorophenyl)-1H-pyrazol-3-yl)(3,4,5-trimethoxyphenyl)methanone] | 0.098 ± 0.007 | 0.318 ± 0.02 | – |
| COc1cc(C2=NCC(=O)Nc3cn(-c4ccc(Cl)cc4)nc32)cc(OC)c1OC [5h, 2–(4-Chlorophenyl)-8–(3,4,5-trimethoxyphenyl)-2,6-dihydropyrazolo[4,3-e][1,4]diazepin-5(4H)-one] | 0.857 ± 0.09 | 0.772 ± 0.004 | – |
| COc1cc(C2=NCC(=O)Nc3cn(-c4ccc(F)cc4)nc32)cc(OC)c1OC [5f, 2–(4-Fluorophenyl)-8–(3,4,5-trimethoxyphenyl)-2,6-dihydropyrazolo[4,3-e][1,4]diazepin-5(4H)-one] | 1.86 ± 0.438 | 0.137 ± 0.025 | – |
| COc1cc(C(=O)c2nn(-c3cccc(F)c3)cc2N)cc(OC)c1OC [4e, (4-Amino-1–(3-fluorophenyl)-1H-pyrazol-3-yl)(3,4,5-trimethoxyphenyl)methanone] | 0.35 ± 0.023 | 0.439 ± 0.037 | – |
| COc1cc(C(=O)c2nn(-c3ccc(C)cc3)cc2N)cc(OC)c1OC [4c, (4-Amino-1–(4-methylphenyl)-1H-pyrazol-3-yl)(3,4,5-trimethoxyphenyl)methanone] | 3.9 ± 0.205 | 0.234 ± 0.033 | – |
| COc1cc2c(c(OC)c1OC)-c1ccc(OC)c(=O)cc1[C@@H](NC(C)=O)CC2 [Colchicine, reference compound] | – | – | effect on microtubule network [1]: microtubule network was destroyed |
| COc1cc(C2=NCC(=O)Nc3cn(-c4cccc(F)c4)nc32)cc(OC)c1OC [5e, 2–(3-Fluorophenyl)-8–(3,4,5-trimethoxyphenyl)-2,6-dihydropyrazolo[4,3-e][1,4]diazepin-5(4H)-one] | 3.01 ± 0.534 | 0.949 ± 0.017 | – |
| COc1cc(C(=O)c2nn(-c3ccc(F)cc3)cc2N)cc(OC)c1OC [4f, (4-Amino-1–(4-fluorophenyl)-1H-pyrazol-3-yl)(3,4,5-trimethoxyphenyl)methanone] | 0.162 ± 0.01 | 0.092 ± 0.005 | – |
| COc1cc(C2=NCC(=O)Nc3cn(-c4ccc(C)cc4)nc32)cc(OC)c1OC [5c, 2–(4-Methylphenyl)-8–(3,4,5-trimethoxyphenyl)-2,6-dihydropyrazolo[4,3-e][1,4]diazepin-5(4H)-one] | 1.38 ± 0.433 | 0.117 ± 0.01 | – |

Reference: publication PMC12459184, “Design, synthesis, and bioevaluation of pyrazole-containing tubulin polymerisation inhibitors based on conformational constraint strategy” (Journal of Enzyme Inhibition and Medicinal Chemistry, 2025)
